The text below walks through data of patent US9636418B2 (priority 2013, dated 2017).

pIC50: −log10 of the molar value. Where two headings read alike, the source gives them in different places.

The test deals with hNav1.4 (Homo sapiens, UniProt P35499). Put plainly: cell-based.
hNav1.4, sequence (P35499 whole entry): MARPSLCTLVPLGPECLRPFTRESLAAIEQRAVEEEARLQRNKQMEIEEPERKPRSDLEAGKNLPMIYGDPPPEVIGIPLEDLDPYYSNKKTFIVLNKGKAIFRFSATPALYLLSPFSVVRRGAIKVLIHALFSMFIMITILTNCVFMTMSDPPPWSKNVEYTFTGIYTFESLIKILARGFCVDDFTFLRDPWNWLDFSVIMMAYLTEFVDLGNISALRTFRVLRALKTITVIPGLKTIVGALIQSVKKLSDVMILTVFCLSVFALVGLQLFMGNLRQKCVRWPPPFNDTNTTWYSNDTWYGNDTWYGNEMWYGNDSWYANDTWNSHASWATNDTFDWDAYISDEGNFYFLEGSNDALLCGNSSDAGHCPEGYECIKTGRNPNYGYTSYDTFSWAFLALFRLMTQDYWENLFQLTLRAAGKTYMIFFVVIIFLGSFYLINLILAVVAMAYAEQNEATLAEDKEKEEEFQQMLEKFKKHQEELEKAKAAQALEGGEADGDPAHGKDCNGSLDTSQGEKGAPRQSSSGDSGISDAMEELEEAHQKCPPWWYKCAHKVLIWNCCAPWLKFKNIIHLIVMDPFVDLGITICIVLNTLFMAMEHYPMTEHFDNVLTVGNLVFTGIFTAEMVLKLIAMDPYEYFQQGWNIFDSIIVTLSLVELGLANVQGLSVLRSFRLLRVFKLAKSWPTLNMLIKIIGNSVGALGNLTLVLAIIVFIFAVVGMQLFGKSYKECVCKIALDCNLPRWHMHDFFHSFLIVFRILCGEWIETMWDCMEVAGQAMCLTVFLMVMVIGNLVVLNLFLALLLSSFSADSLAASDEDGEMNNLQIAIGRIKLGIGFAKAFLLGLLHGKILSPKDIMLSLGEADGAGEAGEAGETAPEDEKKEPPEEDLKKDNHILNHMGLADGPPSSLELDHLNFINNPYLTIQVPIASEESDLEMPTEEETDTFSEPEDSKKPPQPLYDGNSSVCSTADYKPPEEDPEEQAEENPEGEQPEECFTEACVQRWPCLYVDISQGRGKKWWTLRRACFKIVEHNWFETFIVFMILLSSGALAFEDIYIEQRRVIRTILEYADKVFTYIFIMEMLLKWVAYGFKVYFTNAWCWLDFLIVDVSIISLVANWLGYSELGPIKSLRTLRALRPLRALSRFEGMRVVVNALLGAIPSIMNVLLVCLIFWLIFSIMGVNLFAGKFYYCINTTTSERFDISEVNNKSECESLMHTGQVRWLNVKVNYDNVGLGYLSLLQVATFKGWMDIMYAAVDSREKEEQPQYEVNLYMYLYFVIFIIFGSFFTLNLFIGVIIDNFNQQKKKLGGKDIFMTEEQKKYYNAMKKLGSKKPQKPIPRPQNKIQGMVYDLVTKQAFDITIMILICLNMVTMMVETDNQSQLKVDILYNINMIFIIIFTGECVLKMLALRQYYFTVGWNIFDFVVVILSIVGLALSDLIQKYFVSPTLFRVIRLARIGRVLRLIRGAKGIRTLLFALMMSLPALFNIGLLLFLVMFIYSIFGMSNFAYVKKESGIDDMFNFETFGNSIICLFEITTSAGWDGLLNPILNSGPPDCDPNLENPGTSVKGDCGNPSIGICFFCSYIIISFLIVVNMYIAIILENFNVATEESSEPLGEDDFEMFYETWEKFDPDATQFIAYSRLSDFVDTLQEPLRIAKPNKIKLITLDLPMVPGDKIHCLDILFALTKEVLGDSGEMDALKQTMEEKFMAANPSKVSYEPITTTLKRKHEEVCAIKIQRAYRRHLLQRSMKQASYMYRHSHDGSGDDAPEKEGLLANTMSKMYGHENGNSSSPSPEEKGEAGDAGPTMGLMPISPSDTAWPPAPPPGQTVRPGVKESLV

The term pIC50 denotes the IC50 on a negative log10 scale, so that one unit is a factor of ten. Consider `CC[C@H](C)[C@H](NC(=O)[C@@H](NC(=O)[C@H](CCCCN)NC(=O)[C@H](CCCNC(=N)N)NC(=O)[C@@H]1CSSC[C@@H]2NC(=O)[C@H](C)NC(=O)[C@H](CCCNC(=N)N)NC(=O)[C@H](CCCCN)NC(=O)[C@H](CO)NC(=O)[C@H](CC(=O)O)NC(=O)[C@@H]3CSSC[C@H](NC(=O)[C@H](CCC(=O)O)NC(=O)[C@H](CC(C)C)NC(=O)CNC(=O)[C@H](CCC(=O)O)NC(=O)[C@H](CSSC[C@H](NC(=O)[C@@H](N)Cc4ccc(O)cc4)C(=O)N[C@@H](CCC(N)=O)C(=O)N[C@@H](CCCCN)C(=O)N[C@@H](Cc4c[nH]c5ccccc45)C(=O)N[C@@H](CCSC)C(=O)N[C@@H](Cc4c[nH]c5ccccc45)C(=O)N[C@@H]([C@@H](C)O)C(=O)N3)NC2=O)C(=O)N[C@@H](CCCCN)C(=O)N[C@@H](CC(C)C)C(=O)N[C@@H](Cc2c[nH]c3ccccc23)C(=O)N1)[C@@H](C)CC)C(N)=O` [SEQ ID NO: 63, [Glu20]JzTx-V(1-29)], for which the pIC50 (read-out: IC50 against hNav1.4 in the PX assay format) is 5.90.
With `C#CC[C@@H]1NC(=O)[C@@H]2CSSC[C@H](NC(=O)[C@H](Cc3ccc(O)cc3)NC(=O)[C@@H](N)CC#N)C(=O)N[C@@H](CCC(N)=O)C(=O)N[C@@H](CCCCN)C(=O)N[C@@H](Cc3c[nH]c4ccccc34)C(=O)N[C@@H](CCCC)C(=O)N[C@@H](Cc3c[nH]c4ccccc34)C(=O)N[C@@H]([C@@H](C)O)C(=O)N[C@H]3CSSC[C@H](NC(=O)[C@H](CCC(=O)O)NC(=O)[C@H](CC(C)C)NC(=O)CNC1=O)C(=O)N[C@@H](CCCCN)C(=O)N[C@@H](CC(C)C)C(=O)N[C@@H](Cc1c[nH]c4ccccc14)C(=O)N[C@H](C(=O)N[C@@H](CCCNC(=N)N)C(=O)N[C@@H](CCCCN)C(=O)N[C@H](C(=O)N[C@H](C(N)=O)[C@@H](C)CC)[C@@H](C)CC)CSSC[C@H](NC(=O)[C@H](C)NC(=O)[C@H](CCCNC(=N)N)NC(=O)[C@H](CCCCN)NC(=O)[C@H](CO)NC(=O)[C@H](CC(=O)O)NC3=O)C(=O)N2` [compound 396], the Nav1.4/Nav1.7 (ratio of PX tonic IC50 values) is on record as 98.
Consider `C#CC[C@H](N)C(=O)NCCCC[C@@H]1NC(=O)[C@H](CCCNC(=N)N)NC(=O)[C@H](CCCCN)NC(=O)[C@H](CO)NC(=O)[C@H](CC(=O)O)NC(=O)[C@@H]2CSSC[C@@H]3NC(=O)[C@H](CCCNC(=N)N)NC(=O)[C@H](CC(C)C)NC(=O)CNC(=O)[C@H](CCC(=O)O)NC(=O)[C@H](CSSC[C@H](NC(=O)[C@H](Cc4ccc(O)cc4)NC(=O)[C@@H](N)CCC)C(=O)N[C@@H](CCC(N)=O)C(=O)N[C@@H](CCCCN)C(=O)N[C@@H](Cc4c[nH]c5ccccc45)C(=O)N[C@@H](CCCC)C(=O)N[C@@H](Cc4c[nH]c5ccccc45)C(=O)N[C@@H]([C@@H](C)O)C(=O)N2)NC(=O)[C@H](CSSC[C@@H](C(=O)N[C@@H](CCCNC(=N)N)C(=O)N[C@@H](CCCCN)C(=O)N[C@H](C(=O)N[C@H](C(N)=O)[C@@H](C)CC)[C@@H](C)CC)NC(=O)[C@H](Cc2c[nH]c4ccccc24)NC(=O)[C@H](CC(C)C)NC(=O)[C@H](CCCCN)NC3=O)NC1=O` [compound 431], for which the pIC50 (PatchXpress, tonic block, read-out: PX hNav1.4 Tonic IC50) was 7.69. Moreover, under “ratio of PX tonic IC50 values”, the Nav1.4/Nav1.7 is reported as 13.
Consider `CCC[C@H](N)C(=O)N[C@@H](Cc1ccc(O)cc1)C(=O)N[C@H]1CSSC[C@@H]2NC(=O)[C@@H]3CSSC[C@@H](C(=O)N[C@@H](CCCNC(=N)N)C(=O)N[C@@H](CCCCN)C(=O)N[C@H](C(=O)N[C@H](C(N)=O)[C@@H](C)CC)[C@@H](C)CC)NC(=O)[C@H](Cc4c[nH]c5ccccc45)NC(=O)[C@H](CC(C)C)NC(=O)[C@H](CCCCN)NC(=O)[C@H](CSSC[C@H](NC(=O)[C@H]([C@@H](C)O)NC(=O)[C@H](Cc4c[nH]c5ccccc45)NC(=O)[C@H](CC(C)C)NC(=O)[C@H](Cc4c[nH]c5ccccc45)NC(=O)[C@H](CCCCN)NC(=O)[C@H](CCC(N)=O)NC1=O)C(=O)N[C@@H](CC(=O)O)C(=O)N[C@@H](CO)C(=O)N[C@@H](CCCCN)C(=O)N[C@@H](CCCNC(=N)N)C(=O)N[C@@H](CCCCNC(=O)[C@@H](N)Cc1cn(CCOCCOCCOCCOCCOCCOCCOCCOCCOCCOCCN)nn1)C(=O)N3)NC(=O)[C@H](CCCNC(=N)N)NC(=O)[C@H](CC(C)C)NC(=O)CNC(=O)[C@H](CCC(=O)O)NC2=O` [compound 446], for which, where the note is “ratio of PX IC50 values”, the Nav1.4/Nav1.7 is 11.
